Conditions: 283.15 K, Liquid, Vibrating tube method

CCCCCCCCCC [decane]
Conditions	mass density [kg/m3]
11428 kPa	745.5
11443 kPa	745.5
11462 kPa	745.5
11483 kPa	745.5
11498 kPa	745.5
11518 kPa	745.4
11530 kPa	745.6
11543 kPa	745.5
11625 kPa	745.7
11647 kPa	745.7
11663 kPa	745.7
11681 kPa	745.6
11774 kPa	745.8
11790 kPa	745.8
11806 kPa	745.8
11824 kPa	745.8
11838 kPa	745.7
11856 kPa	745.8
11876 kPa	745.9
11889 kPa	745.8
11904 kPa	745.8
11924 kPa	745.9
11943 kPa	745.8
11954 kPa	745.8
11969 kPa	745.9
11982 kPa	746
11997 kPa	745.9
12010 kPa	746
12024 kPa	745.9
12038 kPa	746
12052 kPa	745.9
12068 kPa	745.9
12080 kPa	746
12094 kPa	745.9
12108 kPa	746
12130 kPa	746
12149 kPa	746
12165 kPa	745.9
12180 kPa	746.1
12197 kPa	746
12211 kPa	746
12226 kPa	746
12241 kPa	745.9
12262 kPa	746.1
12280 kPa	746.1
12300 kPa	746
12319 kPa	746.1
12339 kPa	746.1
12356 kPa	746.1
12371 kPa	746.1
12386 kPa	746.2
12401 kPa	746.1
12415 kPa	746.2
12431 kPa	746.2
12451 kPa	746.3
12469 kPa	746.2
12484 kPa	746.2
12505 kPa	746.2
12519 kPa	746.2
12535 kPa	746.3
12550 kPa	746.3
12571 kPa	746.3
12588 kPa	746.3
12602 kPa	746.3
12618 kPa	746.3
12633 kPa	746.3
12649 kPa	746.3
12665 kPa	746.3
12678 kPa	746.3
12693 kPa	746.4
12709 kPa	746.4
12725 kPa	746.3
12741 kPa	746.3
12756 kPa	746.4
12772 kPa	746.5
12794 kPa	746.4
12812 kPa	746.3
12837 kPa	746.4
12855 kPa	746.5
12877 kPa	746.5
12895 kPa	746.6
12914 kPa	746.5
12933 kPa	746.5
12955 kPa	746.4
12972 kPa	746.5
12994 kPa	746.6
13013 kPa	746.5
13033 kPa	746.5
13052 kPa	746.5
13075 kPa	746.5
13095 kPa	746.6
13117 kPa	746.6
13316 kPa	746.8
13337 kPa	746.7
13598 kPa	746.9
13632 kPa	746.9
13652 kPa	747
13673 kPa	747
13697 kPa	746.9
13715 kPa	747
13740 kPa	747
13765 kPa	747.1
13787 kPa	747.1
13809 kPa	747
13831 kPa	747.1
13856 kPa	747
13875 kPa	747.2
13901 kPa	747.1
13923 kPa	747.1
13949 kPa	747.1
13968 kPa	747.2
13994 kPa	747.2
14017 kPa	747.2
14039 kPa	747.2
14062 kPa	747.3
14088 kPa	747.2
14138 kPa	747.2
14164 kPa	747.3
14191 kPa	747.4
14216 kPa	747.4
14359 kPa	747.4
14385 kPa	747.5
14411 kPa	747.4
14428 kPa	747.6
14446 kPa	747.5
14481 kPa	747.5
14499 kPa	747.5
14528 kPa	747.6
14543 kPa	747.6
14563 kPa	747.5
14578 kPa	747.6
14599 kPa	747.6
14614 kPa	747.6
14632 kPa	747.6
14650 kPa	747.6
14668 kPa	747.7
14686 kPa	747.7
14704 kPa	747.6
14722 kPa	747.7
14741 kPa	747.7
14759 kPa	747.7
14777 kPa	747.6
14795 kPa	747.6
14826 kPa	747.7
14844 kPa	747.7
14862 kPa	747.7
14881 kPa	747.8
14903 kPa	747.7
14925 kPa	747.8
14941 kPa	747.8
14963 kPa	747.8
14979 kPa	747.8
14998 kPa	747.9
15017 kPa	748
15036 kPa	747.9
15055 kPa	747.9
15077 kPa	747.9
15100 kPa	747.8
15119 kPa	747.9
15139 kPa	747.9
15239 kPa	748
15312 kPa	748
15351 kPa	748.1
15368 kPa	748.1
15391 kPa	748.2
15415 kPa	748
15442 kPa	748.1
15466 kPa	748.3
15486 kPa	748.1
15507 kPa	748.2
15524 kPa	748.3
15545 kPa	748.3
15569 kPa	748.3
15590 kPa	748.2
15617 kPa	748.3
15645 kPa	748.4
15669 kPa	748.2
15693 kPa	748.3
15718 kPa	748.3
15743 kPa	748.2
15771 kPa	748.4
15799 kPa	748.3
15821 kPa	748.3
15850 kPa	748.3
15874 kPa	748.4
15899 kPa	748.4
15920 kPa	748.6
15949 kPa	748.5
15981 kPa	748.6
16007 kPa	748.4
16028 kPa	748.6
16083 kPa	748.6
16109 kPa	748.6
16135 kPa	748.5
16168 kPa	748.6
16191 kPa	748.6
16221 kPa	748.6
16257 kPa	748.7
16288 kPa	748.7
16310 kPa	748.7
16344 kPa	748.8
16378 kPa	748.7
16405 kPa	748.8
16433 kPa	748.8
16467 kPa	748.7
16494 kPa	748.9
16528 kPa	748.8
16560 kPa	748.9
16587 kPa	749
16619 kPa	748.8
16643 kPa	749
16667 kPa	749
16703 kPa	748.8
16739 kPa	749
16759 kPa	748.8
16796 kPa	749
16824 kPa	749
16852 kPa	749.1
16880 kPa	749
16905 kPa	748.9
16938 kPa	749.2
16967 kPa	749.2
16993 kPa	749.1
17030 kPa	749.2
17063 kPa	749.1
17088 kPa	749.1
17127 kPa	749.2
17153 kPa	749.2
17192 kPa	749.2
17213 kPa	749.3
17240 kPa	749.3
17267 kPa	749.4
17293 kPa	749.4
17316 kPa	749.4
17343 kPa	749.4
17366 kPa	749.5
17390 kPa	749.4
17422 kPa	749.4
17451 kPa	749.3
17470 kPa	749.5
17498 kPa	749.4
17521 kPa	749.4
17549 kPa	749.4
17626 kPa	749.5
17652 kPa	749.5
17711 kPa	749.6
17734 kPa	749.6
17770 kPa	749.5
17792 kPa	749.7
17815 kPa	749.7
17841 kPa	749.8
17864 kPa	749.7
17898 kPa	749.9
17925 kPa	749.6
17948 kPa	749.7
17982 kPa	749.9
18017 kPa	749.8
18044 kPa	749.8
18071 kPa	749.9
18099 kPa	749.9
18130 kPa	749.9
18154 kPa	749.9
18178 kPa	749.9
18210 kPa	750
18246 kPa	750
18305 kPa	750
18383 kPa	750
18574 kPa	750.2
18652 kPa	750.2
18691 kPa	750.2
18719 kPa	750.1
18746 kPa	750.2
18770 kPa	750.3
18793 kPa	750.3
